The NIST ThermoML archive (doi:10.1021/acs.jced.6b00496)
Numbers after ± are expanded uncertainties.

Legend:
[1] = 101.33 kPa, Liquid; for speed of sound: Sing-around technique in a fixed-path interferometer; for mass density: Vibrating tube method
[2] = xn = mol fraction of the nth substance listed; conditions: 81.5 kPa, Liquid, x2 = 0; for speed of sound: Sing-around technique in a fixed-path interferometer; for mass density: Vibrating tube method

CC(=O)N(C)C [N,N-dimethylethanamide]
[1]
Conditions | mass density [kg/m3] | speed of sound [m/s]
293.15 K | 941.341 ± 3.8 | 1477.6 ± 3.2
298.15 K | 936.729 ± 3.8 | 1457.4 ± 3.2
303.15 K | 932.112 ± 3.7 | 1437.4 ± 3.2
308.15 K | 927.492 ± 3.7 | 1417.5 ± 3.2
313.15 K | 922.863 ± 3.7 | 1397.8 ± 3.2
318.15 K | 918.23 ± 3.7 | 1378.2 ± 3.2
323.15 K | 913.586 ± 3.7 | 1358.6 ± 3.2
328.15 K | 908.932 ± 3.6 | 1339.2 ± 3.2
333.15 K | 904.268 ± 3.6 | 1319.9 ± 3.2
338.15 K | 899.595 ± 3.6 | 1300.8 ± 3.2
343.15 K | 894.909 ± 3.6 | 1281.7 ± 3.2

CCn1cc[n+](C)c1.F[B-](F)(F)F [1-ethyl-3-methylimidazolium tetrafluoroborate]
[1]
Conditions | mass density [kg/m3] | speed of sound [m/s]
293.15 K | 1285.95 ± 5.3 | 1640.4 ± 3.7
298.15 K | 1282.14 ± 5.3 | 1628.4 ± 3.7
303.15 K | 1278.34 ± 5.3 | 1616 ± 3.7
308.15 K | 1274.55 ± 5.3 | 1604.9 ± 3.7
313.15 K | 1270.78 ± 5.3 | 1593.4 ± 3.7
318.15 K | 1267.03 ± 5.2 | 1582 ± 3.7
323.15 K | 1263.3 ± 5.2 | 1570.6 ± 3.7
328.15 K | 1259.58 ± 5.2 | 1559.4 ± 3.7
333.15 K | 1255.88 ± 5.2 | 1548.2 ± 3.7
338.15 K | 1252.2 ± 5.2 | 1537.2 ± 3.7
343.15 K | 1248.54 ± 5.2 | 1526.2 ± 3.7

CN(C)C=O [dimethylformamide] + CCn1cc[n+](C)c1.F[B-](F)(F)F
[2]
Conditions | mass density [kg/m3] | speed of sound [m/s]
293.15 K | 948.743 ± 3.8 | 1477.1 ± 3.1
298.15 K | 943.978 ± 3.8 | 1457.6 ± 3.1
303.15 K | 939.201 ± 3.8 | 1438 ± 3.1
308.15 K | 934.417 ± 3.7 | 1418.7 ± 3.1
313.15 K | 929.62 ± 3.7 | 1399.3 ± 3.1
318.15 K | 924.812 ± 3.7 | 1380 ± 3.1
323.15 K | 919.993 ± 3.7 | 1360.9 ± 3.1
328.15 K | 915.159 ± 3.7 | 1341.7 ± 3.1
333.15 K | 910.312 ± 3.6 | 1322.7 ± 3.1
338.15 K | 905.445 ± 3.6 | 1303.7 ± 3.1
343.15 K | 900.565 ± 3.6 | 1284.8 ± 3.1

CC(=O)N(C)C [N,N-dimethylethanamide] + CCn1cc[n+](C)c1.F[B-](F)(F)F
[2]
Conditions | mass density [kg/m3] | speed of sound [m/s]
293.15 K | 941.341 ± 3.8 | 1477.6 ± 3.2
298.15 K | 936.729 ± 3.8 | 1457.4 ± 3.2
303.15 K | 932.112 ± 3.7 | 1437.4 ± 3.2
308.15 K | 927.492 ± 3.7 | 1417.5 ± 3.2
313.15 K | 922.863 ± 3.7 | 1397.8 ± 3.2
318.15 K | 918.23 ± 3.7 | 1378.2 ± 3.2
323.15 K | 913.586 ± 3.7 | 1358.6 ± 3.2
328.15 K | 908.932 ± 3.6 | 1339.2 ± 3.2
333.15 K | 904.268 ± 3.6 | 1319.9 ± 3.2
338.15 K | 899.595 ± 3.6 | 1300.8 ± 3.2
343.15 K | 894.909 ± 3.6 | 1281.7 ± 3.2

CN(C)C=O [dimethylformamide]
[1]
Conditions | mass density [kg/m3] | speed of sound [m/s]
293.15 K | 948.743 ± 3.8 | 1477.1 ± 3.1
298.15 K | 943.978 ± 3.8 | 1457.6 ± 3.1
303.15 K | 939.201 ± 3.8 | 1438 ± 3.1
308.15 K | 934.417 ± 3.7 | 1418.7 ± 3.1
313.15 K | 929.62 ± 3.7 | 1399.3 ± 3.1
318.15 K | 924.812 ± 3.7 | 1380 ± 3.1
323.15 K | 919.993 ± 3.7 | 1360.9 ± 3.1
328.15 K | 915.159 ± 3.7 | 1341.7 ± 3.1
333.15 K | 910.312 ± 3.6 | 1322.7 ± 3.1
338.15 K | 905.445 ± 3.6 | 1303.7 ± 3.1
343.15 K | 900.565 ± 3.6 | 1284.8 ± 3.1
